In ChEMBL document CHEMBL1201862, “PubChem BioAssay data set” (2004):
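Method: 48-hour compound exposure of cells in 96-well plates, five concentrations, linear interpolation of endpoints. Here, GI50 denotes the concentration required for 50% inhibition of growth.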 Calls of active or inactive are those of the source. Rule as the data show it: active = GI50 up to about 1.1 µM and inactive = higher.

How the values were obtained:
Assay in all cases: growth of human tumour cells (NCI), 48 h
CCRF-CEM = test system: CCRF-CEM
OVCAR-4 = test system: OVCAR-4
OVCAR-3 = test system: OVCAR-3
LOX IMVI = test system: LOX IMVI
T47D = test system: T47D
MDA-N = test system: MDA-N
SNB-19 = test system: SNB-19
SF-539 = test system: SF-539
UO-31 = test system: UO-31
A498 = test system: A498
MDA-MB-231 = test system: MDA-MB-231
UACC-62 = test system: UACC-62
RXF 393 = test system: RXF 393
MCF7 = test system: MCF7
CAKI-1 = test system: CAKI-1
SK-MEL-5 = test system: SK-MEL-5
SN12C = test system: SN12C
U-251 = test system: U-251
ACHN = test system: ACHN
KM12 = test system: KM12
SF-268 = test system: SF-268
Hs-578T = test system: Hs-578T
TK-10 = test system: TK-10
HT-29 = test system: HT-29
RPMI-8226 = test system: RPMI-8226
HCT-15 = test system: HCT-15
K562 = test system: K562
HCT-116 = test system: HCT-116
NCI-H23 = test system: NCI-H23
SF-295 = test system: SF-295
M14 = test system: M14
786-0 = test system: 786-0
SK-MEL-2 = test system: SK-MEL-2
HL-60 = test system: HL-60
NCI/ADR-RES = test system: NCI/ADR-RES
SW-620 = test system: SW-620
HOP-92 = test system: HOP-92
COLO 205 = test system: COLO 205
OVCAR-5 = test system: OVCAR-5
DU-145 = test system: DU-145
MOLT-4 = test system: MOLT-4
BT-549 = test system: BT-549
SNB-75 = test system: SNB-75
PC-3 = test system: PC-3
SK-OV-3 = test system: SK-OV-3
A549 = test system: A549
OVCAR-8 = test system: OVCAR-8
IGROV-1 = test system: IGROV-1
UACC-257 = test system: UACC-257
EKVX = test system: EKVX
HOP-62 = test system: HOP-62
Malme-3M = test system: Malme-3M
SR = test system: SR
HCC 2998 = test system: HCC 2998
NCI-H460 = test system: NCI-H460
NCI-H226 = test system: NCI-H226
MDA-MB-435 = test system: MDA-MB-435
NCI-H522 = test system: NCI-H522

`COc1cccc(-c2cc(O)c3cc(OC)ccc3n2)c1` was tested, and the GI50 (CCRF-CEM) was 0.195 µM (active), the GI50 (OVCAR-4) was 1.71 µM (inactive) and the GI50 (OVCAR-3) was 0.188 µM (active). The GI50 (LOX IMVI) was 0.439 µM (active), the GI50 (T47D) was > 10 µM (inactive) and the GI50 (MDA-N) was 0.047 µM (active). The GI50 (SNB-19) was 0.39 µM (active), the GI50 (SF-539) was 0.188 µM (active) and the GI50 (UO-31) was 0.426 µM (active). The GI50 (A498) was 0.0158 µM (active), the GI50 (MDA-MB-231) was 0.368 µM (active) and the GI50 (UACC-62) was 0.182 µM (active). The GI50 (RXF 393) was 0.199 µM (active), the GI50 (MCF7) was 0.364 µM (active) and the GI50 (CAKI-1) was 0.475 µM (active). For the same molecule, the GI50 (SK-MEL-5) was 0.182 µM (active), the GI50 (SN12C) was 0.685 µM (active) and the GI50 (U-251) was 0.305 µM (active). The GI50 (ACHN) was 1.74 µM (inactive), the GI50 (KM12) was 0.396 µM (active) and the GI50 (SF-268) was 0.71 µM (active). For the same molecule, the GI50 (Hs-578T) was 0.24 µM (active), the GI50 (TK-10) was 0.5 µM (active) and the GI50 (HT-29) was 0.33 µM (active). For the same molecule, the GI50 (RPMI-8226) was 0.34 µM (active), the GI50 (HCT-15) was 0.366 µM and the GI50 (K562) was 0.128 µM (active). The GI50 (HCT-116) was 0.239 µM (active), the GI50 (NCI-H23) was 0.32 µM (active) and the GI50 (SF-295) was 0.18 µM (active). The GI50 (M14) was 0.235 µM (active), the GI50 (786-0) was 0.376 µM (active) and the GI50 (SK-MEL-2) was 0.321 µM (active). For the same molecule, the GI50 (HL-60) was 0.0791 µM (active), the GI50 (NCI/ADR-RES) was 0.173 µM (active) and the GI50 (SW-620) was 0.281 µM (active). The GI50 (HOP-92) was 0.488 µM (active), the GI50 (COLO 205) was 0.201 µM (active) and the GI50 (OVCAR-5) was 0.452 µM (active). For the same molecule, the GI50 (DU-145) was 0.429 µM (active), the GI50 (MOLT-4) was 0.311 µM (active) and the GI50 (BT-549) was 0.392 µM (active). The GI50 (SNB-75) was 0.318 µM (active), the GI50 (PC-3) was 0.338 µM (active) and the GI50 (SK-OV-3) was 0.208 µM (active). For the same molecule, the GI50 (A549) was 0.367 µM (active), the GI50 (OVCAR-8) was 0.344 µM (active) and the GI50 (IGROV-1) was 0.483 µM (active). The GI50 (UACC-257) was 0.865 µM (active), the GI50 (EKVX) was 0.92 µM (active) and the GI50 (HOP-62) was 0.446 µM (active). The GI50 (Malme-3M) was 0.0553 µM (active), the GI50 (SR) was 0.0815 µM (active) and the GI50 (HCC 2998) was 0.291 µM (active). For the same molecule, the GI50 (NCI-H460) was 0.365 µM (active) and the GI50 (NCI-H226) was 0.396 µM (active).
In the case of `CCOC(=O)CCC(C(=O)OCC)n1nnc2cc(Nc3c(C)[n+]([O-])c4cc(F)c(OCC)cc4[n+]3[O-])ccc21` (configuration not stated), the GI50 (CCRF-CEM) is reported as > 100 µM (inactive), the GI50 (OVCAR-4) is reported as > 100 µM (inactive) and the GI50 (OVCAR-3) is reported as > 100 µM (inactive). For the same molecule, the GI50 (LOX IMVI) was > 100 µM (inactive), the GI50 (T47D) was > 100 µM (inactive) and the GI50 (MDA-N) was > 100 µM (inactive). For the same molecule, the GI50 (SNB-19) was 34.8 µM (inactive), the GI50 (SF-539) was 42.6 µM (inactive) and the GI50 (UO-31) was > 100 µM (inactive). For the same molecule, the GI50 (A498) was > 100 µM (inactive), the GI50 (UACC-62) was > 100 µM (inactive) and the GI50 (RXF 393) was 14 µM (inactive). For the same molecule, the GI50 (MCF7) was > 100 µM (inactive), the GI50 (CAKI-1) was > 100 µM (inactive) and the GI50 (SK-MEL-5) was > 100 µM (inactive). The GI50 (SN12C) was > 100 µM (inactive), the GI50 (U-251) was 30.7 µM (inactive) and the GI50 (ACHN) was 52.6 µM (inactive). For the same molecule, the GI50 (KM12) was > 100 µM (inactive), the GI50 (SF-268) was 25.5 µM (inactive) and the GI50 (Hs-578T) was 30.3 µM (inactive). For the same molecule, the GI50 (TK-10) was 48.3 µM (inactive), the GI50 (HT-29) was > 100 µM (inactive) and the GI50 (RPMI-8226) was > 100 µM (inactive). For the same molecule, the GI50 (HCT-15) was greater than 100 µM, the GI50 (K562) was > 100 µM (inactive) and the GI50 (HCT-116) was > 100 µM (inactive). For the same molecule, the GI50 (NCI-H23) was 67.8 µM (inactive), the GI50 (SF-295) was 40.9 µM (inactive) and the GI50 (M14) was > 100 µM (inactive). The GI50 (786-0) was 34.5 µM (inactive), the GI50 (SK-MEL-2) was 83.4 µM (inactive) and the GI50 (MDA-MB-435) was > 100 µM (inactive). For the same molecule, the GI50 (HL-60) was > 100 µM (inactive), the GI50 (NCI/ADR-RES) was > 100 µM (inactive) and the GI50 (SW-620) was > 100 µM (inactive). For the same molecule, the GI50 (HOP-92) was 25.6 µM (inactive), the GI50 (COLO 205) was > 100 µM (inactive) and the GI50 (OVCAR-5) was > 100 µM (inactive). For the same molecule, the GI50 (DU-145) was > 100 µM (inactive), the GI50 (MOLT-4) was > 100 µM (inactive) and the GI50 (BT-549) was > 100 µM (inactive). The GI50 (SNB-75) was 37.4 µM (inactive), the GI50 (PC-3) was > 100 µM (inactive) and the GI50 (SK-OV-3) was > 100 µM (inactive). The GI50 (A549) was > 100 µM (inactive), the GI50 (NCI-H522) was > 100 µM (inactive) and the GI50 (OVCAR-8) was 87.1 µM (inactive). The GI50 (IGROV-1) was > 100 µM (inactive), the GI50 (UACC-257) was > 100 µM (inactive) and the GI50 (EKVX) was > 100 µM (inactive). For the same molecule, the GI50 (HOP-62) was 22.2 µM (inactive), the GI50 (Malme-3M) was > 100 µM (inactive) and the GI50 (SR) was > 100 µM (inactive). The GI50 (NCI-H460) was > 100 µM (inactive) and the GI50 (NCI-H226) was > 100 µM (inactive).
